Patent US20230372434A1, “METHOD OF TREATING FIBROSIS WITH A COMBINATION THERAPY” (COHBAR, INC., priority 2020, published 2023)
Square brackets hold non-standard residues; d marks the D form. Primed or numbered codes have the meaning given here. Ends that are not written are not given here. PEG12′ = not defined here; Nle = CCCC[C@H](N)C(=O)O

Columns and labels:
[1] = tested on: established lung fibrosis induced by bleomycin in male C57BL/6 mice; assay: Therapeutic mouse model of idiopathic pulmonary fibrosis, peptide combined with nintedanib (Example 1); format: in vivo; settings: peptide 5 mg/kg/day IP; for Mean Pro-inflammatory Cytokine Level IFNγ / Mean Pro-inflammatory Cytokine Level IL-1β / Mean Pro-inflammatory Cytokine Level IL-6 / Mean Pro-inflammatory Cytokine Level KC/GRO / Mean Pro-inflammatory Cytokine Level MCP-1 / Mean Pro-inflammatory Cytokine Level MIP-1α / Mean Pro-inflammatory Cytokine Level TNFα: BALF, MSD; for Mean Pro-inflammatory Cytokine Level IFNγ / Mean Pro-inflammatory Cytokine Level IL-1β / Mean Pro-inflammatory Cytokine Level IL-6 / Mean Pro-inflammatory Cytokine Level KC/GRO / Mean Pro-inflammatory Cytokine Level MCP-1 / Mean Pro-inflammatory Cytokine Level MIP-1α / Mean Pro-inflammatory Cytokine Level TNFα / Mean (SEM) Number of Lymphocytes in BALF / Mean (SEM) Number of Macrophages in BALF / Mean (SEM) Number of Neutrophils in BALF: Day 21, nintedanib 60 mg/kg/day PO; for Mean (SEM) Normalized Lung Weight / Mean (SEM) Ashcroft Score / Mean (SEM) Collagen Deposition Score in Lung Tissue / Mean (SEM) Soluble Collagen Content in BALF: Day 21 after 14 days of daily treatment, nintedanib 60 mg/kg/day PO; for Mean (SEM) Ashcroft Score: H&E; for Mean (SEM) Collagen Deposition Score in Lung Tissue: Masson's Trichrome; for Mean (SEM) Soluble Collagen Content in BALF: Sircol assay
Description: The effect of combining the peptides of Formula I with a second antifibrotic drug on the progression of established lung fibrosis were assessed by monitoring lung fibrosis, lung weight, inflammatory cells in bronchoalveolar lavage fluid (BALF), soluble collagen in BALF, cytokine secretion, and body weight change in a therapeutic mouse model of idiopathic pulmonary fibrosis. Lung fibrosis was induced in lungs of male C57BL/6 mice between the ages of 6 to 8 weeks by nasophayngeal administration of bleomycin (1.5U/kg using bleomycin clinical formulation diluted in PBS). A control group of animals were administered saline by the nasopharyngeal route (no-bleomycin control group). After one week, bleomycin-treated animals were randomized to treatment groups (N=10 per group) by body weight and treated daily with vehicle control, nintedanib (60 mg/kg/day PO), peptide (5 mg/kg/day by intraperitoneal injection), or the combination of nintedanib (60 mg/kg/day PO) and peptide (5 mg/kg/day by intraperitoneal injection). After 14 days of treatment (Day 21), lungs were removed and weighed. The post-caval lobe was separated and snap frozen. The lungs were flushed with Hanks Buffer and bronchoalveolar lavage fluid (BALF) was harvested from each animal Differential cell counts in BALF were obtained. Levels of pro-inflammatory cytokines in BALF were determined using a meso scale discovery (MSD) system. Slides were prepared from the remaining BALF leukocytes, fixed and stained with May Geimsa stain and the differential counts were recorded manually. BALF was evaluated for soluble collagen using a Sircol assay. Lungs were fixed in 10% neutral buffered formalin (NBF) for histopathological analysis. Fibrosis was assessed by histopathological analysis of H&E stained mouse lungs using an Ashcroft scoring system. Collagen deposition in lung tissue was assessed by histopathological analysis of Masson's Trichrome stained mouse lungs using a standard scoring system for severity.

[2] = tested on: established lung fibrosis induced by bleomycin in male C57BL/6 mice; assay: Therapeutic mouse model of idiopathic pulmonary fibrosis, peptides alone (Example 2); format: in vivo
Description: The effect of the peptides on the progression of established lung fibrosis were assessed by monitoring lung fibrosis, lung weight, inflammatory cells in bronchoalveolar lavage fluid (BALF), soluble collagen in BALF, cytokine secretion in BALF, and body weight change in a therapeutic mouse model of idiopathic pulmonary fibrosis. Lung fibrosis was induced in lungs of male C57BL/6 mice between the ages of 6 to 8 weeks by nasophayngeal administration of bleomycin (1.5 U/kg using bleomycin clinical formulation diluted in PBS). A control group of animals were administered saline by the nasopharyngeal route (no-bleomycin control group). After one week, bleomycin-treated animals were randomized to treatment groups (N=10 per group) by body weight and treated daily with vehicle control, nintedanib positive control (60 mg/kg/day PO) or peptide (5 or 15 mg/kg/day by intraperitoneal injection). After 14 days of treatment (Day 21), lungs were removed and weighed. The post-caval lobe was separated and snap frozen. The lungs were flushed with Hanks Buffer and bronchoalveolar lavage fluid (BALF) was harvested from each animal Total BALF leukocyte were counted. Slides were prepared from the remaining BALF leukocytes, fixed and stained with May Geimsa stain and the differential counts were recorded manually. BALF was evaluated for soluble collagen using a Sircol assay. Lungs were fixed in 10% neutral buffered formalin (NBF) for histopathological analysis. Fibrosis was assessed by histopathological analysis of H&E stained mouse lungs using an Ashcroft scoring system. Collagen deposition in lung tissue was assessed by histopathological analysis of Masson's Trichrome stained mouse lungs using a standard scoring system for severity.

Row | Molecule | Mean Pro-inflammatory Cytokine Level IFNγ [1] | Mean Pro-inflammatory Cytokine Level IL-1β [1] | Mean Pro-inflammatory Cytokine Level IL-6 [1] | Mean Pro-inflammatory Cytokine Level KC/GRO [1] | Mean Pro-inflammatory Cytokine Level MCP-1 [1] | Mean Pro-inflammatory Cytokine Level MIP-1α [1] | Mean Pro-inflammatory Cytokine Level TNFα [1] | Mean (SEM) Number of Lymphocytes in BALF [1] | Mean (SEM) Number of Macrophages in BALF [1] | Mean (SEM) Number of Neutrophils in BALF [1] | Mean (SEM) Normalized Lung Weight [1] | Mean (SEM) Ashcroft Score [1] | Mean (SEM) Collagen Deposition Score in Lung Tissue [1] | Mean (SEM) Ashcroft Score ([2]; Day 21, 15 mg/kg/day IP) | Mean (SEM) Collagen Content in BALF ([2]; Day 21, 15 mg/kg/day IP) | Mean (SEM) Collagen Deposition Score in Lung Tissue ([2]; Day 21, 15 mg/kg/day IP) | Mean (SEM) Normalized Lung Weight ([2]; Day 21, 15 mg/kg/day IP) | Mean (SEM) Number of Lymphocytes in BALF ([2]; Day 21, 15 mg/kg/day IP) | Mean (SEM) Number of Macrophages in BALF ([2]; Day 21, 15 mg/kg/day IP) | Mean (SEM) Number of Neutrophils in BALF ([2]; Day 21, 15 mg/kg/day IP) | also measured
1 | COC(=O)c1ccc2c(c1)NC(=O)/C2=C(\Nc1ccc(N(C)C(=O)CN2CCN(C)CC2)cc1)c1ccccc1 [Nintedanib, nintedanib, reference compound] | 0.019 pg/mL | 0.50 pg/mL | 384 pg/mL | 29.3 pg/mL | 35.8 pg/mL | 1.05 pg/mL | 2.76 pg/mL | 18700 (5200) | 49200 (6450) | 3040 (1370) | 1.49 (0.17) | 2.82 (0.39) | 2.22 (0.43) | – | – | – | – | – | – | – | Mean (SEM) Soluble Collagen Content in BALF [1]: 0.048 (0.005) mg/mL; Mean (SEM) Ashcroft Score ([2]; Day 21, 60 mg/kg/day PO): 2.35 (0.38); Mean (SEM) Collagen Content in BALF ([2]; Day 21, 60 mg/kg/day PO): 0.061 (0.011) mg/mL; Mean (SEM) Collagen Deposition Score in Lung Tissue ([2]; Day 21, 60 mg/kg/day PO): 2.20 (0.36); Mean (SEM) Normalized Lung Weight ([2]; Day 21, 60 mg/kg/day PO): 1.16 (0.07); Mean (SEM) Number of Lymphocytes in BALF ([2]; Day 21, 60 mg/kg/day PO): 1180 (631); Mean (SEM) Number of Macrophages in BALF ([2]; Day 21, 60 mg/kg/day PO): 5030 (823); Mean (SEM) Number of Neutrophils in BALF ([2]; Day 21, 60 mg/kg/day PO): 201 (77)
2 | RVIR(Nle)CLGVGLLGDL(dA)GK{PEG12} (RVIR[Nle]CLGVGLLGDL[dA]GK(PEG12′); also: homodimer, disulfide at Cys6) [SEQ ID NO: 32] | 0.020 pg/mL | 0.07 pg/mL | 269 pg/mL | 21.5 pg/mL | 29.7 pg/mL | 0.95 pg/mL | 3.05 pg/mL | 28600 (5480) | 86600 (7070) | 5850 (2220) | 1.57 (0.20) | 3.12 (0.45) | 2.56 (0.48) | 2.26 (0.35) | 0.091 (0.016) mg/mL | 2.10 (0.35) | 1.20 (0.05) | 1270 (584) | 5030 (974) | 96 (64) | Mean (SEM) Soluble Collagen Content in BALF [1]: 0.058 (0.005) mg/mL; Mean (SEM) Ashcroft Score ([2]; Day 21, 5 mg/kg/day IP): 2.26 (0.27); Mean (SEM) Collagen Content in BALF ([2]; Day 21, 5 mg/kg/day IP): 0.074 (0.019) mg/mL; Mean (SEM) Collagen Deposition Score in Lung Tissue ([2]; Day 21, 5 mg/kg/day IP): 2.20 (0.25); Mean (SEM) Normalized Lung Weight ([2]; Day 21, 5 mg/kg/day IP): 1.17 (0.03); Mean (SEM) Number of Lymphocytes in BALF ([2]; Day 21, 5 mg/kg/day IP): 946 (579); Mean (SEM) Number of Macrophages in BALF ([2]; Day 21, 5 mg/kg/day IP): 5530 (1090); Mean (SEM) Number of Neutrophils in BALF ([2]; Day 21, 5 mg/kg/day IP): 61 (61)
3 | RVIRMCLGVGLLGDLAGK{PEG12} (RVIRMCLGVGLLGDLAGK(PEG12′); also: homodimer, disulfide at Cys6) [SEQ ID NO: 28] | – | – | – | – | – | – | – | – | – | – | – | – | – | 2.24 (0.25) | 0.080 (0.016) mg/mL | 2.00 (0.26) | 1.27 (0.05) | 1210 (233) | 6340 (792) | 261 (117) | –
4 | RVIRACLGVGLLGDL(dA)GK{PEG12} (RVIRACLGVGLLGDL[dA]GK(PEG12′); also: homodimer) [SEQ ID NO: 30] | 0.037 pg/mL | 0.03 pg/mL | 64.6 pg/mL | 16.7 pg/mL | 7.59 pg/mL | 0.52 pg/mL | 2.85 pg/mL | 8930 (3350) | 41700 (5740) | 1830 (1080) | 1.36 (0.10) | 2.93 (0.33) | 2.30 (0.26) | 2.00 (0.37) | 0.063 (0.007) mg/mL | 1.80 (0.33) | 1.22 (0.11) | 896 (254) | 3780 (559) | 122 (88) | Mean (SEM) Soluble Collagen Content in BALF [1]: 0.067 (0.013) mg/mL; Mean (SEM) Ashcroft Score ([2]; Day 21, 5 mg/kg/day IP): 1.92 (0.21); Mean (SEM) Collagen Content in BALF ([2]; Day 21, 5 mg/kg/day IP): 0.071 (0.020) mg/mL; Mean (SEM) Collagen Deposition Score in Lung Tissue ([2]; Day 21, 5 mg/kg/day IP): 1.67 (0.29); Mean (SEM) Normalized Lung Weight ([2]; Day 21, 5 mg/kg/day IP): 1.15 (0.03); Mean (SEM) Number of Lymphocytes in BALF ([2]; Day 21, 5 mg/kg/day IP): 1210 (664); Mean (SEM) Number of Macrophages in BALF ([2]; Day 21, 5 mg/kg/day IP): 5070 (1130); Mean (SEM) Number of Neutrophils in BALF ([2]; Day 21, 5 mg/kg/day IP): 0 (0)
5 | RVIRACLGVGLLGDLAGK{PEG12} (RVIRACLGVGLLGDLAGK(PEG12′); also: homodimer, disulfide at Cys6) [SEQ ID NO: 36] | – | – | – | – | – | – | – | – | – | – | – | – | – | 3.33 (0.33) | 0.068 (0.008) mg/mL | 2.89 (0.35) | 1.32 (0.12) | 884 (442) | 6430 (930) | 165 (140) | Mean (SEM) Ashcroft Score ([2]; Day 21, 5 mg/kg/day IP): 2.65 (0.40); Mean (SEM) Collagen Content in BALF ([2]; Day 21, 5 mg/kg/day IP): 0.081 (0.010) mg/mL; Mean (SEM) Collagen Deposition Score in Lung Tissue ([2]; Day 21, 5 mg/kg/day IP): 2.50 (0.37); Mean (SEM) Normalized Lung Weight ([2]; Day 21, 5 mg/kg/day IP): 1.19 (0.06); Mean (SEM) Number of Lymphocytes in BALF ([2]; Day 21, 5 mg/kg/day IP): 987 (316); Mean (SEM) Number of Macrophages in BALF ([2]; Day 21, 5 mg/kg/day IP): 5180 (1030); Mean (SEM) Number of Neutrophils in BALF ([2]; Day 21, 5 mg/kg/day IP): 113 (60)
